# Measured values reported in US20250346642A1, “NEW SPLICE VARIANT ISOFORM OF VEGF” (CENTRE NATIONAL DE LA RECHERCHE SCIENTIFIQUE (CNRS), priority 2020, published 2025).
# What was measured:
# 786-O cells [1] = experiment: 786-O experimental tumors in mice, anti-VEGFXXX/NF, bevacizumab or anti-KLH treatment (FIG. 12D-J); assay type: in vivo; conditions: 786-O tumors
# Description: (E) The weight of 786-O tumors at the end of the experiment. (F) Quantification of Ki67 positive cells in 786-0 tumors. […] (G) Number of mature (CD31+, a-SMA+) vessels in the different tumor sections.
# Plasma levels of VEGFXXX/NFand VEGF are increased in the VEGF bevacizumab-treated group. […] FIG. 13. A-D) The levels of VEGF and VEGF222/NF were evaluated in the plasma (just before sunitinib treatment) of 47 metastatic ccRCC patients. The third quartile was used as the cut-off to determine patients' groups, respectively 4500 […] for VEGF and VEGF222/NF. The plasma levels of VEGF (A and C) or VEGF222/NF (B and D) were correlated to PFS under first-line sunitinib treatment (A and B) or with OS (C and D). Kaplan-Meier method was used to produce survival curves and analyzes of censored data were performed using Cox models. Statistical significance (p values) is indicated.
# Tumor sections (5-μm cryostat sections) were fixed in 4% paraformaldehyde for twenty minutes at room temperature and blocked in 1% donkey serum in Tris-buffered saline (TBS) for two hours. […] Preparations were mounted and analyzed with a Leica microscope (Leica DMI4000B) and counted at a 10× magnification. Results are expressed as the number of vessels per mm^2 of sections.
# 786-O cells [2] = experiment: 786-O experimental RCC tumors in NMRI mice, antibody treatment (FIG. 10); assay type: in vivo; conditions: intraperitoneal once a week for 6 weeks, 5 mg/kg
# From the text: FIG. 10. VEGF222/NF inhibition delays tumor growth of experimental RCC. 3M of 786-O cells were subcutaneously grafted in the left flank of NMRI mice. […] Tumor volumes were monitored with a caliper for 50 days. ***P<0.001, ****P<0.0001 (Anova Test).
# For generating control or polyclonal anti-VEGF222/NF antibodies, 6 weeks BALB/cJRj mice (n=10) were immunized either with KLH carrier protein or with specific peptides SEQ 1 and SEQ2 coupled to KLH as previously described (Guyot et al., 2017, Targeting the pro-angiogenic forms of VEGF or inhibiting their expression as anti-cancer strategies. Oncotarget 8, 9174-9188) IgG were purified of Protein G Sepharose column. All animal studies were approved in advance by the local animal care committee (Veterinary service and direction of sanitary and social action of Monaco, Dr H. Raps.)
substance,measurement,setting,value
bevacizumab,number of lymphatic vessels (LYVE1+) in tumors,786-O cells [1],stimulated their development
same,size of tumors versus control group,786-O cells [1],equivalent to those of the control group
same,tumor growth of 786-O experimental tumors,786-O cells [2],did not
